From ChEMBL document CHEMBL5058649, “Data for DCP probe BAY 1816032” (2022)
Active and inactive are the calls of the source. The calls are words filed in the database; no cut-off is given here.

Assays:
[1] = molecular target: Alpha-1D adrenergic receptor (Homo sapiens) (UniProt P25100); assay: Inhibition of Adrenergic alpha1D at 10 µM in the Eurofins-Panlabs radioligand binding assay (Eurofins_assay_203400); conditions: Compound concentration 10.0 uM
Homo sapiens = species: Homo sapiens; assay: Glutamate, Metabotropic, mGlu5 Eurofins-Panlabs radioligand binding assay; conditions: Compound concentration 10.0 uM
[2] = molecular target: Melanocyte-stimulating hormone receptor (Homo sapiens) (UniProt Q01726); assay: Melanocortin MC1 Eurofins-Panlabs radioligand binding assay; conditions: Compound concentration 10.0 uM
[3] = molecular target: Mitotic checkpoint serine/threonine-protein kinase BUB1 (Homo sapiens, UniProt O43683); assay: BUB1 surface plasmon resonance (SPR) assay
[4] = molecular target: Dual specificity testis-specific protein kinase 1 (Homo sapiens) (UniProt Q15569); assay: TESK1 DiscoveRx kinase panel; conditions: Compound concentration 1.0 uM
Sequence of Dual specificity testis-specific protein kinase 1 (Homo sapiens) (Q15569 whole entry, looked up): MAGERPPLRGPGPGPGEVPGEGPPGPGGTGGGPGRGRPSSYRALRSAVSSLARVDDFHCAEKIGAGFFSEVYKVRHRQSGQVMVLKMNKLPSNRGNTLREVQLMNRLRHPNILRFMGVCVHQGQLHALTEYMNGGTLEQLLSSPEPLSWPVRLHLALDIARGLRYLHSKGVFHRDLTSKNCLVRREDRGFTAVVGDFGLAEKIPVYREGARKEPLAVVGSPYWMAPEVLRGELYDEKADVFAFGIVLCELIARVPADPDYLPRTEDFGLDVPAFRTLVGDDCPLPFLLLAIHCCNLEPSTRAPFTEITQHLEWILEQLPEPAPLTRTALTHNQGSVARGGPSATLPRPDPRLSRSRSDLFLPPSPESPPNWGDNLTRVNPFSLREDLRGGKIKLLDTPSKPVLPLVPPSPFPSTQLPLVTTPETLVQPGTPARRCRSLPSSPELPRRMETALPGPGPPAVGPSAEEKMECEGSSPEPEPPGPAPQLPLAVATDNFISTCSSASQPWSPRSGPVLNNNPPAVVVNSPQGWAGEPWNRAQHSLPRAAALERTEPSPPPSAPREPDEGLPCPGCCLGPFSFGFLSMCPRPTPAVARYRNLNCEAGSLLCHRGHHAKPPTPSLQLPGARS

[5] = molecular target: Mitogen-activated protein kinase kinase kinase kinase 4 (Homo sapiens) (UniProt O95819); assay: MAP4K4 DiscoveRx kinase panel; conditions: Compound concentration 1.0 uM
[6] = molecular target: Serine/threonine-protein kinase WNK4 (Homo sapiens) (UniProt Q96J92); assay: WNK4 DiscoveRx kinase panel; conditions: Compound concentration 1.0 uM
[7] = molecular target: Serine/threonine-protein kinase 36 (Homo sapiens) (UniProt Q9NRP7); assay: STK36 DiscoveRx kinase panel; conditions: Compound concentration 1.0 uM
[8] = molecular target: Misshapen-like kinase 1 (Homo sapiens) (UniProt Q8N4C8); assay: MINK DiscoveRx kinase panel; conditions: Compound concentration 1.0 uM
[9] = molecular target: Cyclin-G-associated kinase (Homo sapiens) (UniProt O14976); assay: GAK DiscoveRx kinase panel; conditions: Compound concentration 1.0 uM
Sequence of Cyclin-G-associated kinase (Homo sapiens) (O14976 whole entry): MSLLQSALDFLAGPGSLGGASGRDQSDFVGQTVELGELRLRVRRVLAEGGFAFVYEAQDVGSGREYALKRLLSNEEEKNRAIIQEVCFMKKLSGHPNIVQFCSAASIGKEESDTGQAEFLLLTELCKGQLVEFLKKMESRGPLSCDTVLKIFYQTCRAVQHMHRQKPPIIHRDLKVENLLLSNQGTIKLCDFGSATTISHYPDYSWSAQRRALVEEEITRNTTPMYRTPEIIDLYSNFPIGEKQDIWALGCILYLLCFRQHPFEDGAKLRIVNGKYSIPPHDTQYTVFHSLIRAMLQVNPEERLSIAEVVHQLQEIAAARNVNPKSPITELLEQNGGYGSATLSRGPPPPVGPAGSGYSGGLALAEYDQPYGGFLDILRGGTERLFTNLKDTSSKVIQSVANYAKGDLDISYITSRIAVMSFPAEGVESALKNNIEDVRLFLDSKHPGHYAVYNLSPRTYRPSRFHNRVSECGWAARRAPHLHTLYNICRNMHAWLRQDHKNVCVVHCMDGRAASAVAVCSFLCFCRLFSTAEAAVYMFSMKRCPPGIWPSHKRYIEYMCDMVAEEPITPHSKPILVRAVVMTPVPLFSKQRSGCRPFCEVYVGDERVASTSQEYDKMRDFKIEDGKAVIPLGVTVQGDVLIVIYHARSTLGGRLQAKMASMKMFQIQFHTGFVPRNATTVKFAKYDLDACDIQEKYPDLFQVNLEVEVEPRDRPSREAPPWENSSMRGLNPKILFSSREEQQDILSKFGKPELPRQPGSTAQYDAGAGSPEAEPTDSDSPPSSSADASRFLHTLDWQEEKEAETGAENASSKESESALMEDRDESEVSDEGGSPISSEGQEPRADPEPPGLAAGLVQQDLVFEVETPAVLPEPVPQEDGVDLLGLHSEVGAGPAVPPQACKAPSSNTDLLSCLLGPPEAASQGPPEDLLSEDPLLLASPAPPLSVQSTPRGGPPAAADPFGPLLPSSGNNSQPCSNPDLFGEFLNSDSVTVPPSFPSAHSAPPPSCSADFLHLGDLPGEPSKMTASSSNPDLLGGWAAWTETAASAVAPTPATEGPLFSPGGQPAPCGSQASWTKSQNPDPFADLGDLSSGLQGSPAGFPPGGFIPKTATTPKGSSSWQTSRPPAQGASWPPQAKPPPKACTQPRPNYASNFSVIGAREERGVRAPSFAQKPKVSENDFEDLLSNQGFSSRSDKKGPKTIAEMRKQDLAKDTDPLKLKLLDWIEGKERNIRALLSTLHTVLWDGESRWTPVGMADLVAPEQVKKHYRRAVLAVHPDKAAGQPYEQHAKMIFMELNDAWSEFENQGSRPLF

[10] = molecular target: Serine/threonine-protein kinase PAK 6 (Homo sapiens) (UniProt Q9NQU5); assay: PAK6 DiscoveRx kinase panel; conditions: Compound concentration 1.0 uM
[11] = molecular target: Hepatocyte growth factor receptor (Homo sapiens) (UniProt P08581); assay: MET DiscoveRx kinase panel; conditions: Compound concentration 1.0 uM
[12] = molecular target: Cyclin-dependent kinase-like 1 (Homo sapiens) (UniProt Q00532); assay: CDKL1 DiscoveRx kinase panel; conditions: Compound concentration 1.0 uM
[13] = molecular target: Ephrin type-A receptor 3 (Homo sapiens) (UniProt P29320); assay: EPHA3 DiscoveRx kinase panel; conditions: Compound concentration 1.0 uM
Sequence of Ephrin type-A receptor 3 (Homo sapiens) (P29320 whole entry): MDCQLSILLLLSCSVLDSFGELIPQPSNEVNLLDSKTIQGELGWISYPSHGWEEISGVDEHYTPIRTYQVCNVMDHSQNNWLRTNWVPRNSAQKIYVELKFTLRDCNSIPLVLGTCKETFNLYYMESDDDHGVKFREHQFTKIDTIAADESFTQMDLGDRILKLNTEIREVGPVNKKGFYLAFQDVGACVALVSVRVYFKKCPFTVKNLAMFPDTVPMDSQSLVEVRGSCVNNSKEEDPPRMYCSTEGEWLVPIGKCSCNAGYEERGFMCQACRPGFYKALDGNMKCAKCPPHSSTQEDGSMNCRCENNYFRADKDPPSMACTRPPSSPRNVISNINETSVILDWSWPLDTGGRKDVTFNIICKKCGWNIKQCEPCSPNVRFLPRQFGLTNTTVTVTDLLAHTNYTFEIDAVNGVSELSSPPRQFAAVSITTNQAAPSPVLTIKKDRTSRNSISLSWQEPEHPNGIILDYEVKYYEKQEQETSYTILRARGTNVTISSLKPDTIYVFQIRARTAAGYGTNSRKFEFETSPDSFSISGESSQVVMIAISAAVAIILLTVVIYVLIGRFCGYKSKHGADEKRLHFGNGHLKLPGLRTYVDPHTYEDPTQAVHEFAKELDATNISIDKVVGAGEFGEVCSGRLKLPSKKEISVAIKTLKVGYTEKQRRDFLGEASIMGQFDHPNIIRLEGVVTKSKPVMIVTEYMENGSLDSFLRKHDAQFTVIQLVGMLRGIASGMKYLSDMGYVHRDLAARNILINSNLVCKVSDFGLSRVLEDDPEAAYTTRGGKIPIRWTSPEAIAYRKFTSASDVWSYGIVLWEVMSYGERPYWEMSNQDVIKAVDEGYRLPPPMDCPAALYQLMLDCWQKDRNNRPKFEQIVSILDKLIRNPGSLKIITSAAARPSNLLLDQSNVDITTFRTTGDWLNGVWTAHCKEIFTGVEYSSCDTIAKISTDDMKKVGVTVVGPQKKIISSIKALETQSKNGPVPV

[14] = molecular target: Serine/threonine-protein kinase PAK 5 (Homo sapiens) (UniProt Q9P286); assay: PAK7 DiscoveRx kinase panel; conditions: Compound concentration 1.0 uM
[15] = molecular target: Phosphatidylinositol 4-kinase beta (Homo sapiens) (UniProt Q9UBF8); assay: PIK4CB DiscoveRx kinase panel; conditions: Compound concentration 1.0 uM
[16] = molecular target: Focal adhesion kinase 1 (Homo sapiens) (UniProt Q05397); assay: FAK DiscoveRx kinase panel; conditions: Compound concentration 1.0 uM
[17] = molecular target: Serine/threonine-protein kinase Nek5 (Homo sapiens) (UniProt Q6P3R8); assay: NEK5 DiscoveRx kinase panel; conditions: Compound concentration 1.0 uM
[18] = molecular target: Protein kinase C eta type (Homo sapiens) (UniProt P24723); assay: PRKCH DiscoveRx kinase panel; conditions: Compound concentration 1.0 uM
[19] = molecular target: MAP kinase-activated protein kinase 2 (Homo sapiens) (UniProt P49137); assay: MAPKAPK2 DiscoveRx kinase panel; conditions: Compound concentration 1.0 uM
[20] = molecular target: Mitogen-activated protein kinase kinase kinase 9 (Homo sapiens) (UniProt P80192); assay: MLK1 DiscoveRx kinase panel; conditions: Compound concentration 1.0 uM
[21] = molecular target: Discoidin domain-containing receptor 2 (Homo sapiens) (UniProt Q16832); assay: DDR2 DiscoveRx kinase panel; conditions: Compound concentration 1.0 uM
[22] = molecular target: Muscle, skeletal receptor tyrosine-protein kinase (Homo sapiens) (UniProt O15146); assay: MUSK DiscoveRx kinase panel; conditions: Compound concentration 1.0 uM
[23] = molecular target: Mitogen-activated protein kinase 7 (Homo sapiens) (UniProt Q13164); assay: ERK5 DiscoveRx kinase panel; conditions: Compound concentration 1.0 uM
[24] = molecular target: Serine/threonine-protein kinase TBK1 (Homo sapiens) (UniProt Q9UHD2); assay: TBK1 DiscoveRx kinase panel; conditions: Compound concentration 1.0 uM
[25] = molecular target: cGMP-dependent protein kinase 2 (Homo sapiens) (UniProt Q13237); assay: PRKG2 DiscoveRx kinase panel; conditions: Compound concentration 1.0 uM
Sequence of cGMP-dependent protein kinase 2 (Homo sapiens) (Q13237 whole entry): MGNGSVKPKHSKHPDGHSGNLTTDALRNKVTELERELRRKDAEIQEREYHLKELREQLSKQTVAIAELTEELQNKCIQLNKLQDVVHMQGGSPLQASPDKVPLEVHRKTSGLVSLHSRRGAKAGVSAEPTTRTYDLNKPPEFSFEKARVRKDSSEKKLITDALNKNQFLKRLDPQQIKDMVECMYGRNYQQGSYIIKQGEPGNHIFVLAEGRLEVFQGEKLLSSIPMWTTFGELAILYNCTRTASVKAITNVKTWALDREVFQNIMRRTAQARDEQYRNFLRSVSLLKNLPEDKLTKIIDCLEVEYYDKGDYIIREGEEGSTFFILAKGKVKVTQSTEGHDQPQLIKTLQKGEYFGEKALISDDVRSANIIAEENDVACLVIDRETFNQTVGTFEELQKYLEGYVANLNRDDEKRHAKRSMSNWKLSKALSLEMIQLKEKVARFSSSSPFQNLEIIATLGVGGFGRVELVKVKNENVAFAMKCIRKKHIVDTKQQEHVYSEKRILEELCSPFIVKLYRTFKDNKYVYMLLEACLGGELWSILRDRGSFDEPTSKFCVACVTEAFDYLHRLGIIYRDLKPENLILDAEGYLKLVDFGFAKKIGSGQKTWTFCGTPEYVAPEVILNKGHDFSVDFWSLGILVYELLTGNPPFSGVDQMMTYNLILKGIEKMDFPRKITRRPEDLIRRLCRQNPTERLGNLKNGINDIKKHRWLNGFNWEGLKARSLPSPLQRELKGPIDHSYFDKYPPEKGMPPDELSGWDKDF

[26] = molecular target: Ephrin type-A receptor 4 (Homo sapiens) (UniProt P54764); assay: EPHA4 DiscoveRx kinase panel; conditions: Compound concentration 1.0 uM
[27] = molecular target: Insulin receptor (Homo sapiens) (UniProt P06213); assay: INSR DiscoveRx kinase panel; conditions: Compound concentration 1.0 uM
[28] = molecular target: Mitogen-activated protein kinase kinase kinase 2 (Homo sapiens) (UniProt Q9Y2U5); assay: MAP3K2 DiscoveRx kinase panel; conditions: Compound concentration 1.0 uM
[29] = molecular target: Dual specificity mitogen-activated protein kinase kinase 1 (Homo sapiens) (UniProt Q02750); assay: MEK1 DiscoveRx kinase panel; conditions: Compound concentration 1.0 uM
[30] = molecular target: Serine/threonine-protein kinase N2 (Homo sapiens) (UniProt Q16513); assay: PKN2 DiscoveRx kinase panel; conditions: Compound concentration 1.0 uM
[31] = molecular target: Dual specificity mitogen-activated protein kinase kinase 7 (Homo sapiens) (UniProt O14733); assay: MKK7 DiscoveRx kinase panel; conditions: Compound concentration 1.0 uM
[32] = molecular target: Serine/threonine-protein kinase 38 (Homo sapiens) (UniProt Q15208); assay: NDR1 DiscoveRx kinase panel; conditions: Compound concentration 1.0 uM
[33] = molecular target: Aurora kinase C (Homo sapiens) (UniProt Q9UQB9); assay: AURKC DiscoveRx kinase panel; conditions: Compound concentration 1.0 uM
[34] = molecular target: Serine/threonine-protein kinase Chk2 (Homo sapiens) (UniProt O96017); assay: CHEK2 DiscoveRx kinase panel; conditions: Compound concentration 1.0 uM
[35] = molecular target: Casein kinase II subunit alpha (Homo sapiens) (UniProt P68400); assay: CSNK2A1 DiscoveRx kinase panel; conditions: Compound concentration 1.0 uM
[36] = molecular target: Dual specificity tyrosine-phosphorylation-regulated kinase 2 (Homo sapiens) (UniProt Q92630); assay: DYRK2 DiscoveRx kinase panel; conditions: Compound concentration 1.0 uM
[37] = molecular target: Ephrin type-B receptor 6 (Homo sapiens) (UniProt O15197); assay: EPHB6 DiscoveRx kinase panel; conditions: Compound concentration 1.0 uM
[38] = molecular target: Inhibitor of nuclear factor kappa-B kinase subunit beta (Homo sapiens) (UniProt O14920); assay: IKK-beta DiscoveRx kinase panel; conditions: Compound concentration 1.0 uM
[39] = molecular target: Serine/threonine-protein kinase mTOR (Homo sapiens) (UniProt P42345); assay: MTOR DiscoveRx kinase panel; conditions: Compound concentration 1.0 uM
[40] = molecular target: Myosin light chain kinase family member 4 (Homo sapiens) (UniProt Q86YV6); assay: MYLK4 DiscoveRx kinase panel; conditions: Compound concentration 1.0 uM
[41] = molecular target: Serine/threonine-protein kinase pim-2 (Homo sapiens) (UniProt Q9P1W9); assay: PIM2 DiscoveRx kinase panel; conditions: Compound concentration 1.0 uM
[42] = molecular target: Tyrosine-protein kinase ZAP-70 (Homo sapiens) (UniProt P43403); assay: ZAP70 DiscoveRx kinase panel; conditions: Compound concentration 1.0 uM
[43] = molecular target: Peroxisome proliferator-activated receptor gamma (Homo sapiens) (UniProt P37231); assay: PPARgamma Eurofins-Panlabs radioligand binding assay; set-up: ligand concentration 5 nM; conditions: Compound concentration 10.0 uM
[44] = molecular target: 5-hydroxytryptamine receptor 2B (Homo sapiens) (UniProt P41595); conditions: Compound concentration 10.0 uM
[45] = molecular target: D(1B) dopamine receptor (Homo sapiens) (UniProt P21918); conditions: Compound concentration 10.0 uM
[46] = molecular target: Beta-1 adrenergic receptor (Homo sapiens) (UniProt P08588); conditions: Compound concentration 10.0 uM
[47] = molecular target: Adenosine receptor A1 (Homo sapiens) (UniProt P30542); conditions: Compound concentration 10.0 uM
[48] = molecular target: Sodium-dependent noradrenaline transporter (Homo sapiens, UniProt P23975); conditions: Compound concentration 10.0 uM
Sequence of Sodium-dependent noradrenaline transporter (P23975 whole entry): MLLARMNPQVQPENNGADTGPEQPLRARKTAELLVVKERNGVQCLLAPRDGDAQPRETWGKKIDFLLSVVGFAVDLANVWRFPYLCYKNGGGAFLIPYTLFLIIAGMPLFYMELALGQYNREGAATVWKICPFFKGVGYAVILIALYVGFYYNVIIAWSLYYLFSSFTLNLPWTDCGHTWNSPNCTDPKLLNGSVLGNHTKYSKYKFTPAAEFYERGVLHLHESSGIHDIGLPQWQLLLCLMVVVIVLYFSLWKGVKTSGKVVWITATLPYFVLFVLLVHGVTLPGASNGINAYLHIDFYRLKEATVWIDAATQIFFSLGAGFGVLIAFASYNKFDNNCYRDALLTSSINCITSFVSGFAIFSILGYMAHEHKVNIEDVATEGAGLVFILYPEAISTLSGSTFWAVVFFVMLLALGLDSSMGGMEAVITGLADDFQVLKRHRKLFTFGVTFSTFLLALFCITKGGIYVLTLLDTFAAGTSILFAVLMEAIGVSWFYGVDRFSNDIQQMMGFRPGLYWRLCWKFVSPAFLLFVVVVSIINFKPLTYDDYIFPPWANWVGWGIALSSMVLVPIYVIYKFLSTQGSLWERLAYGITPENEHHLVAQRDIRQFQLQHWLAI

[49] = molecular target: D(2) dopamine receptor (Homo sapiens) (UniProt P14416); conditions: Compound concentration 10.0 uM
[50] = molecular target: Glutamate receptor 2 (Homo sapiens) (UniProt P42262); conditions: Rattus norvegicus; Compound concentration 10.0 uM

Sequence of Alpha-1D adrenergic receptor (Homo sapiens) (P25100 whole entry): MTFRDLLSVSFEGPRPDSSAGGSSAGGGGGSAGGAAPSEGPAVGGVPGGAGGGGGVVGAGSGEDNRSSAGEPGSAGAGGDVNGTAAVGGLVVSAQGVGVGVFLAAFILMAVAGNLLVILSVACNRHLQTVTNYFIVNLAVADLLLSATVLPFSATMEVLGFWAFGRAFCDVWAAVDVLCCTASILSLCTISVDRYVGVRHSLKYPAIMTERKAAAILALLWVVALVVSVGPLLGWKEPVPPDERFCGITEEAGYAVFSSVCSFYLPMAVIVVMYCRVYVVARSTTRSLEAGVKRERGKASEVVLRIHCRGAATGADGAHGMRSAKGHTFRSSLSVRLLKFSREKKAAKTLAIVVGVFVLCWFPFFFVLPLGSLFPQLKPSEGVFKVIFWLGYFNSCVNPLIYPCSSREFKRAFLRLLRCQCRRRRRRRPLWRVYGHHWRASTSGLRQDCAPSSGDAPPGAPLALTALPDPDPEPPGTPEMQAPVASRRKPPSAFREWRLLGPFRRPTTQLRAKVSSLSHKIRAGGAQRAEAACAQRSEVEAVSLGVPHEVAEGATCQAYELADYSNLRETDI

Compound: COc1cnccc1Nc1nc(-c2nn(Cc3c(F)cc(OCCO)cc3F)c3ccccc23)ncc1OC
- inhibition [1]: 24%
- inhibition (Homo sapiens): 17%
- inhibition [2]: 4%
- Kd [3]: 2.1 nM (active)
- residual activity [4]: 57%
- residual activity [5]: 62%
- residual activity [6]: 63%
- residual activity [7]: 68%
- residual activity [8]: 76%
- residual activity [9]: 77%
- residual activity [10]: 79%
- residual activity [11]: 80%
- residual activity [12]: 81%
- residual activity [13]: 85%
- residual activity [14]: 85%
- residual activity [15]: 87%
- residual activity [16]: 88%
- residual activity [17]: 88%
- residual activity [18]: 89%
- residual activity [19]: 92%
- residual activity [20]: 92%
- residual activity [21]: 93%
- residual activity [22]: 93%
- residual activity [23]: 94%
- residual activity [24]: 94%
- residual activity [25]: 95%
- residual activity [26]: 96%
- residual activity [27]: 97%
- residual activity [28]: 97%
- residual activity [29]: 97%
- residual activity [30]: 97%
- residual activity [31]: 98%
- residual activity [32]: 98%
- residual activity [33]: 100%
- residual activity [34]: 100%
- residual activity [35]: 100%
- residual activity [36]: 100%
- residual activity [37]: 100%
- residual activity [38]: 100%
- residual activity [39]: 100%
- residual activity [40]: 100%
- residual activity [41]: 100%
- residual activity [42]: 100%
- inhibition [43]: -8%
- inhibition [44]: 1.96%
- inhibition [45]: -0.37%
- inhibition [46]: -6.28%
- inhibition [47]: 9%
- inhibition [48]: 26%
- inhibition [49]: 4%
- inhibition [50]: 7%
